According to the NIST ThermoML archive (doi:10.1016/j.jct.2014.07.024):

Experiment: excess molar enthalpy (molar enthalpy of mixing); xn = mol fraction of the nth substance listed
Details: 101 kPa, Crystal, Calvet calorimetry

O=[N+]([O-])[O-].[Rb+] [rubidium nitrate] + O=[N+]([O-])[O-].[Cs+]
excess molar enthalpy [kcal/mol]
Details | 298.15 K | 473.15 K
x1 = 0.1 | 0.12 | –
x1 = 0.16 | – | 0.0619
x1 = 0.23 | 0.263 | –
x1 = 0.32 | 0.287 | –
x1 = 0.36 | – | 0.132
x1 = 0.5 | 0.335 | 0.139
x1 = 0.57 | 0.335 | –
x1 = 0.65 | 0.311 | –
x1 = 0.68 | 0.287 | –
x1 = 0.73 | – | 0.103
x1 = 0.8 | 0.215 | –
